# In PMC4627230, “Identification of TAX2 peptide as a new unpredicted anti-cancer agent” (Oncotarget, 2015):
# How the values were obtained:
# [1] = test system: B16F1 melanoma tumor in C57BL/6 mice; test: Subcutaneous B16F1 melanoma allograft: tumor volume and necrosis; format: in vivo, mouse; details: 10 mg/kg i.p. days 3, 5, 7
# Procedure: For the subcutaneous melanoma tumor model, suspensions of B16F1 cells (2.5 × 10^5 cells in 100 μL RPMI-1640 medium) were subcutaneously injected into the left flank of different randomized series of syngeneic C57BL/6 mice (n = 8–10 per group), as previously described. Intraperitoneal administrations of peptide (10 mg/kg mouse weight) or controls (physiological serum 0.9% (w/v) NaCl or a scrambled peptide) were performed at days 3, 5 and 7. In human pancreatic carcinoma xenograft experiments, 3 × 10^6 MIA PaCa-2 cells/mouse were implanted subcutaneously into the left flank of BALB/C athymic nude mice, then TAX2 intraperitoneal treatments (10 mg/kg mouse weight) were performed 3 times a week during 4 weeks starting at day 10 after tumor cells inoculation. Tumor volume was determined according to v = 0.5 A × B^2, where A denotes the largest dimension of the tumor and B represents the smallest dimension. At days indicated, mice were sacrificed and tumors were surgically extracted and fixed in 4% paraformaldehyde for further morphologic studies and for magnetic resonance imaging, or frozen for immunohistochemistry. Mice were also weighed every 2–3 days and daily checked for any modification in their behavior. Loss of 15% body weight was an indication for euthanasia as well as severe tumor necrosis, as it was sometimes associated with skin ulceration that would result in loss of body fluid and/or infection.
# Histological analysis of formaldehyde-fixed and paraffin-embedded tumors were performed on hemalun, phloxin and saffron (HPS) stained 3 μm thick sections prepared using routine histological methods. To assess tumor-associated microvessel density (MVD), CD31 immunostaining was performed on 5 μm thick cryosections using biotin-labeled secondary antibody and streptavidin-HRP AEC detection system (Microm Microtech, Francheville, France), followed by hematein counter-coloration. Negative controls were done omitting the primary antibody. The necrotic part relative to total tumor surface for each tumor slice as well as MVD were quantified using ImageJ software.
# Tumors were studied by magnetic resonance imaging (MRI) for visualization of tumor necrosis when the subcutaneous allografts reached a diameter of about 0.8 cm (day 12). […] Image treatment, segmentation, tri-dimensional reconstruction and quantification were performed using ImageJ and Amira 5.4.3 (Visualization Sciences Group, Burlington, MA, USA) software.
# Animals were anesthetized by isoflurane (Forene, Abbott France, Rungis, France) inhalation (3% for induction and 1–1.5% for maintenance) and then after placed in a carbon fibers bed. […] Analysis of reconstructed images and quantification of the vascular network were performed using Amira 5.4.3 software.
# TSP-1 binding to CD36 = test: Co-immunoprecipitation TSP-1:CD36 in HUVECs; format: cell-based, human; details: 100 μM, 24 h
# Procedure: Figure 3 Anti-angiogenic properties of TAX2 are mediated by TSP-1 binding to CD36 A. Expression of CD36 in HUVECs was assessed by immunoblotting (left panel) and immunofluorescence staining (right panel, red). Nuclei were counterstained with DAPI (blue). B. HUVECs were incubated with 100 μM cyclic TAX2 or in control conditions for 24 h. Then, CD36-containing complexes were co-immunoprecipitated from whole cell extracts (non-specific IgGs were used as a negative control for immunoprecipitation). Immunocomplexes were submitted to SDS-PAGE and immunoblotted (IB) by using specific antibodies for TSP-1 and CD36. The presence of TSP-1 in immunocomplexes was quantified by densitometric analysis relative to immunoprecipitated CD36. C. VEGFR2 phosphorylation induced by VEGF in the presence of TAX2. After overnight serum starvation, HUVECs were pre-treated with 100 μM TAX2 or control for 12 h, then incubated with 30 ng/mL VEGF for 5 min. […] Data are expressed as the mean ± SE (n = 3; *p < 0.05, ANOVA). […] Quantification of total tube-like network length was realized using ImageJ software E. Branching points F. and nodal structures G. were numbered using the S.CORE web-based system. Data are expressed as the mean ± SE (n = 3; *p < 0.05, ANOVA). […]
sequence,measurement,setting,value
"CEVSQLLKGDAC (disulfide) [TAX2, CD47-derived cyclic disulfide dodecapeptide …]",large central necrotic area inside tumor masses (MRI and μCT),[1],large central necrotic area inside tumor masses
same,"median tumor volume, melanoma","[1]; early stages (day 12, caliper), n = 54",No significant modification
same,increase of necrotic area vs control (HPS staining),[1]; p < 0.05,about 3 fold
same,tumor necrosis at day 20,[1]; photographs,substantial tumor necrosis
same,increase of TSP-1 co-immunoprecipitated with CD36,TSP-1 binding to CD36,3 fold
